Reference: patent US8685969B2, “Carboline carboxamide compounds useful as kinase inhibitors” (Bristol-Myers Squibb Company, priority 2010, dated 2014)

What was measured:
human recombinant Btk = target: T1, human recombinant Btk (Homo sapiens, UniProt Q06187); test: Human Recombinant Btk Enzyme Assay; format: biochemical; conditions: human recombinant Btk 1 nM, ATP 20 μM, 60 min room temperature; read-out: IC50 for Inhibition of Btk
T1 construct: purchased Invitrogen Corporation
Experimental: Human Recombinant Btk Enzyme Assay
To V-bottom 384-well plates were added test compounds, human recombinant Btk (1 nM, Invitrogen Corporation), fluoresceinated peptide (1.5 μM), ATP (20 μM), and assay buffer (20 mM HEPES pH 7.4, 10 mM MgCl2, 0.015% Brij35 and 4 mM DTT in 1.6% DMSO), with a final volume of 30 μL. After incubating at room temperature for 60 min, the reaction was terminated by adding 45 μl of 35 mM EDTA to each sample. The reaction mixture was analyzed on the Caliper LABCHIP® 3000 (Caliper, Hopkinton, Mass.) by electrophoretic separation of the fluorescent substrate and phosphorylated product. Inhibition data were calculated by comparison to no enzyme control reactions for 100% inhibition and no inhibitor controls for 0% inhibition. Dose response curves were generated to determine the concentration required inhibiting 50% of kinase activity (IC50). Compounds were dissolved at 10 mM in dimethylsulfoxide (DMSO) and evaluated at eleven concentrations.
Using this assay, the IC50 values of the following compounds were determined.

Ramos RA1 B cells = test: Ramos FLIPR Assay (intracellular calcium after anti-human IgM stimulation); format: cell-based; conditions: Ramos RA1 B cells stimulated with goat anti-human IgM 2.5 μg/mL; peak calcium; read-out: IC50 for Inhibition of Ramos FLIPR assay
Experimental: Ramos RA1 B cells (ATCC CRL-1596) at a density of 2×10^6 cells/ml in RPMI minus phenol red (Invitrogen 11835-030) and 50 mM HEPES (Invitrogen 15630-130) containing 0.1% BSA (Sigma A8577) were added to one half volume of calcium loading buffer (BD bulk kit for probenecid sensitive assays, #640177) and incubated at room temperature in the dark for 1 hour. Dye-loaded cells were pelleted (Beckmann GS-CKR, 1200 rpm, RT, 5 minutes) and resuspended in RT RPMI minus phenol red with 50 mM HEPES and 10% FBS to a density of 1×10^6 cells/ml. 150 μl aliquots (150,000/well) were plated into 96 well poly-D-lysine coated assay plates (BD 35 4640) and briefly centrifuged (Beckmann GS-CKR 800 rpm, 5 minutes, without brake). 50 μl compound dilutions in 0.4% DMSO/RPMI minus phenol red+50 mM HEPES+10% FBS were added to the wells and the plate was incubated at RT in the dark for 1 hour. Assay plate was briefly centrifuged as above prior to measuring calcium levels.
Using the FLIPR1 (Molecular devices), cells were stimulated by adding goat anti-human IgM (Invitrogen AHI0601) to 2.5 μg/mL. Changes in intracellular calcium concentrations were measured for 180 seconds and percent inhibition was determined relative to peak calcium levels seen in the presence of stimulation only.

T1 sequence (Q06187 whole entry): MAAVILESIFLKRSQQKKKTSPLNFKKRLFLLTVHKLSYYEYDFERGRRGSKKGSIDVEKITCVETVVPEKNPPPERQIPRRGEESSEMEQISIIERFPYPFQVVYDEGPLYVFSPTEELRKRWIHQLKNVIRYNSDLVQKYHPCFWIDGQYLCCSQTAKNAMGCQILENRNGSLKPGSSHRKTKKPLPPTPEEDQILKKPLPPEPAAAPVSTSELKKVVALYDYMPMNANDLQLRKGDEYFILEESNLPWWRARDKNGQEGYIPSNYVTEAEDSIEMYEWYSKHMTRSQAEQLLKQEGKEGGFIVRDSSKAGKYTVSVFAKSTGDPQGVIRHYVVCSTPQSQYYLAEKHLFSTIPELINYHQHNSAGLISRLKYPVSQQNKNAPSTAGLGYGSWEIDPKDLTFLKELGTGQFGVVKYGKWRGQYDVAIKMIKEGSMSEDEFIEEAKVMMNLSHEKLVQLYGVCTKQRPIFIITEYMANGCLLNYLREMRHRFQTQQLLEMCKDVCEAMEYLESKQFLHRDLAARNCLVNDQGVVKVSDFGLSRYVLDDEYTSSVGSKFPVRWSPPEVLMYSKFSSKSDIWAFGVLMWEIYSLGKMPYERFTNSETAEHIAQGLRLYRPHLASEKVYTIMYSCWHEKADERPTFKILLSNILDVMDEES

SMILES	IC50 (human recombinant Btk) [µM]	IC50 (Ramos RA1 B cells) [µM]
COCCOc1ccc2c(c1)[nH]c1c(C(N)=O)ncc(-c3cccc(N4Cc5ccc(Cl)cc5C4=O)c3C)c12 [Example 9, 4-(3-(6-Chloro-1-oxoisoindolin-2-yl)-2-methylphenyl)-7-(2-methoxyethoxy)-9H-pyrido[3,4-b]indole-1-carboxamide]	0.002	
Cc1c(-c2cnc(C(N)=O)c3[nH]c4cc(OCCO)ccc4c23)cccc1-n1cnc2ccccc2c1=O [Example 11, 7-(2-Hydroxyethoxy)-4-(2-methyl-3-(4-oxoquinazolin-3(4H)-yl)phenyl)-9H-pyrido[3,4-b]indole-1-carboxamide]	0.003	
Cc1c(-c2cnc(C(N)=O)c3[nH]c4cc(C(C)O)ccc4c23)cccc1-n1cnc2ccccc2c1=O (stereo not drawn) [Example 30, 7-(1-Hydroxyethyl)-4-(2-methyl-3-(4-oxoquinazolin-3(4H)-yl)phenyl)-9H-pyrido[3,4-b]indole-1-carboxamide]	0.003	0.016
COc1ccc2c(c1)C(=O)N(c1cccc(-c3cnc(C(N)=O)c4[nH]c5cc(C(C)O)ccc5c34)c1C)C2 (stereo not drawn) [Example 31, 7-(1-Hydroxyethyl)-4-(3-(6-methoxy-1-oxoisoindolin-2-yl)-2-methylphenyl)-9H-pyrido[3,4-b]indole-1-carboxamide]		0.071
COCCOc1ccc2c(c1)[nH]c1c(C(N)=O)nnc(-c3cccc(N4Cc5ccc(Cl)cc5C4=O)c3C)c12 [Example 32, 1-(3-(6-Chloro-1-oxoisoindolin-2-yl)-2-methylphenyl)-7-(2-methoxyethoxy)-5H-pyridazino[4,5-b]indole-4-carboxamide]	0.007	
Cc1c(-c2nnc(C(N)=O)c3[nH]c4cc(OCCO)ccc4c23)cccc1-n1cnc2ccccc2c1=O [Example 34, 7-(2-Hydroxyethoxy)-1-(2-methyl-3-(4-oxoquinazolin-3(4H)-yl)phenyl)-5H-pyridazino[4,5-b]indole-4-carboxamide]	0.007	
COc1ccc2c(c1)C(=O)N(c1cccc(-c3nnc(C(N)=O)c4[nH]c5cc(C(C)=O)ccc5c34)c1C)C2 [Example 35, 7-Acetyl-1-(3-(6-methoxy-1-oxoisoindolin-2-yl)-2-methylphenyl)-5H-pyridazino[4,5-b]indole-4-carboxamide]	0.057	1.38
COc1ccc2c(c1)C(=O)N(c1cccc(-c3nnc(C(N)=O)c4[nH]c5cc(C(C)(C)O)ccc5c34)c1C)C2 [Example 36, 7-(2-Hydroxypropan-2-yl)-1-(3-(6-methoxy-1-oxoisoindolin-2-yl)-2-methylphenyl)-5H-pyridazino[4,5-b]indole-4-carboxamide]	0.003	
COCCOc1ccc2c(c1)[nH]c1c(C(N)=O)nc(C)c(-c3cccc(-n4cnc5ccccc5c4=O)c3C)c12 [Example 37, 7-(2-Methoxyethoxy)-3-methyl-4-(2-methyl-3-(4-oxoquinazolin-3(4H)-yl)phenyl)-9H-pyrido[3,4-b]indole-1-carboxamide]	0.014	0.19
Cc1c(-c2ncc(C(N)=O)c3[nH]c4cc(C(C)(C)O)ccc4c23)cccc1N1Cc2ccc(F)cc2C1=O [Example 41, 1-(3-(6-Fluoro-1-oxoisoindolin-2-yl)-2-methylphentl)-7-(2-hydroxypropan-2-yl)-5H-pyrido[4,3-b]indole-4-carboxamide]	0.006	> 0.5
Cc1c(-c2ccc(C(N)=O)c3[nH]c4c(c23)CNCC4)cccc1-n1cnc2ccccc2c1=O [Example 42, 9-(2-Methyl-3-(4-oxoquinazolin-3(4H)-yl)phenyl)-2,3,4,5-tetrahydro-1H-pyrido[4,3-b]indole-6-carboxamide]	0.521	> 1
NC(=O)c1ncc(-c2ccccc2F)c2c1[nH]c1ccc(F)cc12 [Example 54]	0.065	
CN(C)c1ccc(C(=O)Nc2cccc(-c3cnc(C(N)=O)c4[nH]c5cc(C(=O)N6CCOCC6)ccc5c34)c2F)cc1 [Example 55]	0.043	
COc1ccc2[nH]c3c(C(N)=O)ncc(-c4ccccc4F)c3c2c1 [Example 56]	0.032	
Cc1ccc(C(=O)Nc2cccc(-c3cnc(C(N)=O)c4[nH]c5cc(N6CCOCC6)ccc5c34)c2F)nc1 [Example 60]	0.085	
Cc1c(NC(=O)c2ccc(F)cc2)cccc1-c1cnc(C(N)=O)c2[nH]c3cc(N4CCOCC4)ccc3c12 [Example 64]	0.008	
Cc1c(NC(=O)N2Cc3ccc(F)cc3C2)cccc1-c1cnc(C(N)=O)c2[nH]c3cc(N4CCOCC4)ccc3c12 [Example 71]	0.003	0.071
NC(=O)c1ncc(-c2cccc(NC(=O)N3Cc4ccc(F)cc4C3)c2F)c2c1[nH]c1cc(N3CCOCC3)ccc12 [Example 73]		1.03
NC(=O)c1ncc(-c2cccc(N3Cc4ccc(Cl)cc4C3=O)c2F)c2c1[nH]c1cc(N3CCOCC3)ccc12 [Example 77]		0.081
Cc1c(-c2cnc(C(N)=O)c3[nH]c4cc5c(cc4c23)OCO5)cccc1N1Cc2ccc(Cl)cc2C1=O [Example 79]		0.856
COCCOc1ccc2c(c1)[nH]c1c(C(N)=O)ncc(-c3cccc(N4Cc5ccc(OC)cc5C4=O)c3F)c12 [Example 82]		1.08
COCCOc1ccc2c(c1)[nH]c1c(C(N)=O)ncc(-c3cccc(N4Cc5ccc(F)cc5C4=O)c3F)c12 [Example 85]		1.42
COCCOc1ccc2c(c1)[nH]c1c(C(N)=O)ncc(-c3cccc(-n4cnc5c(F)cccc5c4=O)c3C)c12 [Example 87]	0.007	0.063
Cc1c(-c2cnc(C(N)=O)c3[nH]c4cc(OCCO)ccc4c23)cccc1-n1cnc2ccc(F)cc2c1=O [Example 90]		0.084
Cc1c(-c2cnc(C(N)=O)c3[nH]c4cc(N5CCOCC5)ccc4c23)cccc1N1Cc2ccc(Cl)cc2C1=O [Example 92]		0.056
Cc1c(-c2cnc(C(N)=O)c3[nH]c4cc(N5CCOCC5)ccc4c23)cccc1-n1cnc2c(F)cccc2c1=O [Example 97]		0.015
Cc1c(-c2nnc(C(N)=O)c3[nH]c4cc(OCCO)ccc4c23)cccc1N1Cc2ccc(Cl)cc2C1=O [Example 99]	0.008	
Cc1c(-c2nnc(C(N)=O)c3[nH]c4cc(C(C)(C)O)ccc4c23)cccc1N1Cc2ccc(Cl)cc2C1=O [Example 100]		0.019
Cc1c(-c2ccc(C(N)=O)c3[nH]c4cnc(C(C)(C)O)cc4c23)cccc1-n1cnc2cccc(F)c2c1=O [Example 110]	0.014	0.096
Cc1c(-c2ccc(C(N)=O)c3[nH]c4cc(C(=O)N(C)C)ncc4c23)cccc1-n1cnc2ccccc2c1=O [Example 117]	0.023	0.294
